ChEMBL document CHEMBL5625261, “Cytotoxic effects of kinetin riboside and its selected analogues on cancer cell lines” (Bioorg Med Chem Lett, 2024)

Experiments:
MCF7 [1] = assay: Cytotoxicity against human MCF7 cells assessed as reduction in cell viability incubated for 48 hrs by MTT assay; format: functional, cell-based; conditions: MCF7, 48 h
OVCAR-3 [2] = assay: Cytotoxicity against human OVCAR-3 cells assessed as reduction in cell viability incubated for 24 hrs by MTT assay; format: functional, cell-based; conditions: OVCAR-3, 24 h
MIA PaCa-2 [3] = assay: Cytotoxicity against human MIA PaCa-2 cells assessed as reduction in cell viability incubated for 72 hrs by MTT assay; format: functional, cell-based; conditions: MIA PaCa-2, 72 h
Caco-2 [4] = assay: Cytotoxicity against human Caco-2 cells assessed as reduction in cell viability incubated for 48 hrs by MTT assay; format: functional, cell-based; conditions: Caco-2, 48 h
[5] = Cytotoxicity against human MRC5 cells assessed as reduction in cell viability incubated for 48 hrs by MTT assay; format: toxicity, cell-based
HeLa [6] = assay: Cytotoxicity against human HeLa cells assessed as reduction in cell viability incubated for 24 hrs by MTT assay; format: functional, cell-based
HeLa [7] = assay: Cytotoxicity against human HeLa cells assessed as reduction in cell viability incubated for 48 hrs by MTT assay; format: functional, cell-based
Caco-2 [8] = assay: Cytotoxicity against human Caco-2 cells assessed as reduction in cell viability incubated for 72 hrs by MTT assay; format: functional, cell-based; conditions: Caco-2, 72 h
HeLa [9] = assay: Cytotoxicity against human HeLa cells assessed as reduction in cell viability incubated for 72 hrs by MTT assay; format: functional, cell-based
MCF7 [10] = assay: Cytotoxicity against human MCF7 cells assessed as reduction in cell viability incubated for 72 hrs by MTT assay; format: functional, cell-based; conditions: MCF7, 72 h
OVCAR-3 [11] = assay: Cytotoxicity against human OVCAR-3 cells assessed as reduction in cell viability incubated for 48 hrs by MTT assay; format: functional, cell-based; conditions: OVCAR-3, 48 h
[12] = Cytotoxicity against human MRC5 cells assessed as reduction in cell viability incubated for 24 hrs by MTT assay; format: toxicity, cell-based
MIA PaCa-2 [13] = assay: Cytotoxicity against human MIA PaCa-2 cells assessed as reduction in cell viability incubated for 24 hrs by MTT assay; format: functional, cell-based; conditions: MIA PaCa-2, 24 h
MCF7 [14] = assay: Cytotoxicity against human MCF7 cells assessed as reduction in cell viability incubated for 24 hrs by MTT assay; format: functional, cell-based; conditions: MCF7, 24 h
[15] = Cytotoxicity against human MRC5 cells assessed as reduction in cell viability incubated for 72 hrs by MTT assay; format: toxicity, cell-based
Caco-2 [16] = assay: Cytotoxicity against human Caco-2 cells assessed as reduction in cell viability incubated for 24 hrs by MTT assay; format: functional, cell-based; conditions: Caco-2, 24 h
MIA PaCa-2 [17] = assay: Cytotoxicity against human MIA PaCa-2 cells assessed as reduction in cell viability incubated for 48 hrs by MTT assay; format: functional, cell-based; conditions: MIA PaCa-2, 48 h
OVCAR-3 [18] = assay: Cytotoxicity against human OVCAR-3 cells assessed as reduction in cell viability incubated for 72 hrs by MTT assay; format: functional, cell-based; conditions: OVCAR-3, 72 h

Row | SMILES | IC50 (MCF7 [1]) | IC50 (OVCAR-3 [2]) | IC50 (MIA PaCa-2 [3]) | IC50 (Caco-2 [4]) | IC50 at 48 h [5] | IC50 (HeLa [6]) | IC50 (HeLa [7]) | IC50 (Caco-2 [8]) | IC50 (HeLa [9]) | IC50 (MCF7 [10]) | IC50 (OVCAR-3 [11]) | IC50 at 24 h [12] | IC50 (MIA PaCa-2 [13]) | IC50 (MCF7 [14]) | IC50 at 72 h [15] | IC50 (Caco-2 [16]) | IC50 (MIA PaCa-2 [17]) | IC50 (OVCAR-3 [18])
1 | OC[C@H]1O[C@@H](n2cnc3c(NCc4ccco4)ncnc32)C[C@@H]1O | > 100 µM | > 100 µM | > 100 µM | > 100 µM | > 100 µM | > 100 µM | > 100 µM | > 100 µM | > 100 µM | > 100 µM | > 100 µM | > 100 µM | > 100 µM | > 100 µM | > 100 µM | > 100 µM | > 100 µM | > 100 µM
2 | OC[C@H]1O[C@@H](n2cnc3c(NCc4ccco4)ncnc32)[C@@H](O)[C@@H]1O | > 100 µM | > 100 µM | > 100 µM | > 100 µM | > 100 µM | > 100 µM | > 100 µM | > 100 µM | > 100 µM | > 100 µM | > 100 µM | > 100 µM | > 100 µM | > 100 µM | > 100 µM | > 100 µM | > 100 µM | > 100 µM
3 | Nc1nc(NCc2ccco2)nc2c1ncn2[C@@H]1O[C@H](CO)[C@@H](O)[C@H]1O | > 100 µM | > 100 µM | > 100 µM | > 100 µM | > 100 µM | > 100 µM | > 100 µM | > 100 µM | > 100 µM | > 100 µM | > 100 µM | > 100 µM | > 100 µM | > 100 µM | > 100 µM | > 100 µM | > 100 µM | > 100 µM
4 | OC[C@H]1O[C@@H](n2cnc3c(NCc4cccs4)ncnc32)[C@H](O)[C@@H]1O | 3 µM | > 100 µM | 1.1 µM | 10.5 µM | 2.1 µM | > 100 µM | > 100 µM | 5.9 µM | > 100 µM | 2.6 µM | 2.9 µM | 12.7 µM | > 100 µM | 20.8 µM | 1.8 µM | 16.9 µM | 1.2 µM | 1.5 µM
